Test results as given in article PMC2570929 (Emerging Infectious Diseases, 2008).
Entries after “also recorded” stand apart in the source; their conditions may differ. Where two headings read alike, the source gives them in different places.

Key:
[1] = tested on: poliovirus Sabin strain 1 (PV1); assay: microbe, parasite or virus in culture; assay type: cell-based; settings: for EC50: Enterovirus C, HeLa, 72 h, read-out: EC50 PV1
[2] = tested on: poliovirus Sabin strain 2 (PV2); assay: microbe, parasite or virus in culture; assay type: cell-based; settings: Enterovirus C, HeLa, 72 h, read-out: EC50 PV2
[3] = tested on: poliovirus Sabin strain 3 (PV3); assay: microbe, parasite or virus in culture; assay type: cell-based; settings: Enterovirus C, HeLa, 72 h, read-out: EC50 PV3
[4] = tested on: poliovirus Sabin strains 1, 2, and 3; assay: microbe, parasite or virus in culture; assay type: cell-based; settings: for EC50: Enterovirus C, read-out: EC50
in vitro = settings: human
[5] = in vivo; cited from earlier work
[6] = cited from earlier work
poliovirus 1 Sabin = assay type: cell-based
PV = settings: in vivo; cited from earlier work

Row | SMILES | EC50 [1] [µM] | EC50 [2] [µM] | EC50 [3] [µM] | EC50 [4] [µM] | CC50 (in vitro) [µM] | further results
1 | OC(c1ccccc1)c1nc2ccccc2[nH]1 (stereo not drawn) [HBB, 2-(α-hydroxybenzyl)-benzimidazole] | 300 ± 68 | 225 ± 128 | 295 ± 88 | 200 to 300 | > 400 | 
2 | CCOC(=O)c1ccc(OCCCC2CCN(c3ccc(C)nn3)CC2)cc1 [Pirodavir analog (R78206)] | 0.76 ± 0.18 | 0.22 ± 0.19 | 0.11 ± 0.1 |  | 27 ± 34 | Inhibitory activity against PV1 [1]: exhibited inhibitory activity; EC50 ([4]; HeLa): < 2 µM
3 | C#CCC(C(=O)NC(C=CC(=O)OCC)CC1CCNC1=O)n1cccc(NC(=O)c2cc(C)on2)c1=O (stereo not shown) [Compound 1] | 0.26 ± 0.24 |  |  | < 1 | > 100 | cytotoxicity (HeLa cells (ATCC CCL-2)): without any signs of cytotoxicity; oral bioavailability [5]: excellent
4 | NC(=O)c1ncn([C@@H]2O[C@H](CO)[C@@H](O)[C@H]2O)n1 [Ribavirin] | 57 ± 13 | 64 ± 4 | 55 ± 7 | 50 to 60 | > 100 | 
5 | C[C@@]1(O)[C@H](O)[C@@H](CO)O[C@H]1n1cnc2c(N)ncnc21 [2'-C-methyladenosine, 2′-C-methyladenosine] | 5.5 | 5.6 ± 0.1 | 5.4 ± 0.4 | ~5 | 84 | 
6 | N#Cc1cc([N+](=O)[O-])ccc1Oc1ccc(Cl)c(Cl)c1 [MDL-860, 2-(3,4-dichlorophenoxy)-5-nitrobenzonitrile] | 6 ± 1.6 | 3.6 ± 2.2 | 2.2 ± 1.5 |  | > 100 | 
7 | CCOC(=O)c1ccc(OCCC2CCN(c3ccc(C)nn3)CC2)cc1 [Pirodavir (R77975)] | 10 ± 1 | 1.7 ± 0.1 | 0.56 ± 0.03 |  | > 100 | EC50 ([4]; HeLa): < 2 µM; metabolic stability after oral administration [5]: metabolic instability
8 | CC(C)S(=O)(=O)n1c(N)nc2ccc(/C(=N/O)c3ccccc3)cc21 [Enviroxime] | 0.2 ± 0.25 | 0.056 ± 0.02 | 0.035 ± 0.029 | 0.035 to 0.2 | 58 ± 6 | activity in vivo [6]: weak to moderate; toxicity in vivo [6]: toxicity
9 | N=c1ccn(Cc2nc3ccccc3n2-c2ccc(F)cc2)cc1 [MRL-1237] | 5.3 ± 0.3 | 4.6 ± 1.4 | 3.8 ± 2.5 |  | > 100 | 
10 | [N-]=[N+]=N[C@]1(CO)O[C@@H](n2ccc(N)nc2=O)[C@H](O)[C@@H]1O [4’-azidocytidine, 4′-azidocytidine] | > 100 | > 100 | > 100 |  | > 100 | anti-PV activity [4]: inactive; also recorded: devoid of anti-PV activity
11 | Cc1cc(CCCOc2c(C)cc(-c3noc(C(F)(F)F)n3)cc2C)on1 [Pleconaril] | > 100 | 1.1 ± 0.6 | 0.22 ± 0.15 |  | 66 ± 6 | Inhibitory activity against PV1 [1]: inactive; reduction of infectious virus yield (poliovirus 1 Sabin): not able to reduce infectious virus yield; EC50 ([4]; HeLa): < 2 µM; benefit of treatment in a persistently infected person (PV): no benefit; virus excretion in a child persistently infected with PV (PV): effective in stopping virus excretion
12 | C[C@@]1(O)[C@H](O)[C@@H](CO)O[C@H]1n1ccc(N)nc1=O [2'-C-methylcytidine, 2′-C-methylcytidine] | 15 ± 18 | 29 ± 27 | 3.9 ± 2.3 | 3.9 to 29 | > 100 | 
13 | CCOC(=O)/C=C/[C@H](C[C@@H]1CCNC1=O)NC(=O)[C@@H](CC(=O)[C@@H](NC(=O)c1cc(C)on1)C(C)C)Cc1ccc(F)cc1 [Rupintrivir] | 0.022 ± 0.028 | 0.041 ± 0.024 | 0.0052 ± 0.0046 |  | > 100 | decrease of infectious virus production (poliovirus 1 Sabin): 6 log10; reduction of virus progeny formation (poliovirus 1 Sabin): 10–1,000 fold; cytotoxicity (HeLa cells (ATCC CCL-2)): without any signs of cytotoxicity
